Target: Glutamate NMDA receptor
Test: Binding affinity for N-methyl-D-aspartate glutamate receptor of cerebral cortical synaptic membranes from rats using [3H]MK-801 as radioligand

SMILES | IC50 [µM]
CCCN(CC1CC1)C(=O)/C(=C\C1CCCN1)c1ccccc1 (stereo not given) | 0.74
CCCN(CCC)C(=O)/C(=C\C1CCCN1)c1ccc(C)cc1 (stereo not given) | > 1000
O=C(/C(=C\C1CCCN1)c1ccccc1)N1CCNCC1 (stereo not given) | > 1000
CCCN(CCC)C(=O)/C(=C\C1CCCN1)c1ccccc1 (stereo not given) | 0.54
CCCN(CCC)C(=O)/C(=C\C1CCCN1)c1ccc(OC)cc1 (stereo not given) | 160
CC[C@H](N)[C@@H]1C[C@@]1(C(=O)N(CC)CC)c1ccccc1 | 0.2
CCCN(CCC)C(=O)/C(=C\C1CCCN1)c1cccc(F)c1 (stereo not given) | 0.42
O=C(/C(=C\C1CCCN1)c1ccccc1)N1CCCCCC1 (stereo not given) | 16
CCCN(CCC)C(=O)/C(=C\C(N)CC)c1ccccc1 (stereo not given) | 0.53
CCCN(CCC)C(=O)/C(=C\C1CCCN1)c1ccccc1F (stereo not given) | 1.7
CCN(CC)C(=O)/C(=C\C1CCCN1)c1ccccc1 (stereo not given) | 3.6
CCN(CC)C(=O)[C@@]1(c2ccccc2)C[C@H]1C1CCCN1 (stereo not given in full) | 1
CCCN(CCC)C(=O)/C(=C\C1CCCN1)c1ccc(F)cc1 (stereo not given) | 13
CCCCN(CCCC)C(=O)/C(=C\C1CCCN1)c1ccccc1 (stereo not given) | 4.2
C=C(C)CN(CC)C(=O)/C(=C\C1CCCN1)c1ccccc1 (stereo not given) | 0.52
